The target in experiment [1] is T1, mGPRC6A (mouse GPRC6A) (Mus musculus, UniProt Q8K4Z6).
T1 sequence (Q8K4Z6 21-928): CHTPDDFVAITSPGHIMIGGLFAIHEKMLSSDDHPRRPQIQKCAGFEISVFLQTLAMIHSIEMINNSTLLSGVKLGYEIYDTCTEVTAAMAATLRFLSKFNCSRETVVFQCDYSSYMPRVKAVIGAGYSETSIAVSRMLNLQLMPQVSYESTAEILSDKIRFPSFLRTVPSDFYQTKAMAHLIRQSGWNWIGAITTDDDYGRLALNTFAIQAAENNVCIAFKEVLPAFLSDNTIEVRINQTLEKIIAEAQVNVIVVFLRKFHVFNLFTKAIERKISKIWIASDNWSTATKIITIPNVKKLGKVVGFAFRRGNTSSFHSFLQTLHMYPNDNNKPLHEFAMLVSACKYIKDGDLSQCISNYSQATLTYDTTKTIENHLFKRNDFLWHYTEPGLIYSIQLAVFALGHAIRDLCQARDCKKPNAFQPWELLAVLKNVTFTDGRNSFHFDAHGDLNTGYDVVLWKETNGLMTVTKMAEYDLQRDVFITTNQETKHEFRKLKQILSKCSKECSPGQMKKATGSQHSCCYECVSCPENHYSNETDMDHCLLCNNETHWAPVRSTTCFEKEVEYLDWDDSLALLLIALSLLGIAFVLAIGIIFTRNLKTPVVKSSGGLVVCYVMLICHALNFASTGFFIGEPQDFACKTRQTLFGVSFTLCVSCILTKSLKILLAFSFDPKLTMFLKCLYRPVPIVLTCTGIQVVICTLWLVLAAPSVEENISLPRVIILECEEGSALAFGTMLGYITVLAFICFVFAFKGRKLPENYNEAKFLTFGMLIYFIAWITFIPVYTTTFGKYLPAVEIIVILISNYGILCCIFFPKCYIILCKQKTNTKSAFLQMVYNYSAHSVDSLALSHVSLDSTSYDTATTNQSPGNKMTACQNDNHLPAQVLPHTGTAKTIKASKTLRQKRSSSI
Nature of the experiment: Cyclic AMP accumulation, FlpIn-TREx-HEK293-mGPRC6A cells. The format is cell-based. The method, then:
pcDNA 5/FRT/TO constructs were isogenically integrated into a FlpIn-TREx-HEK293 cell line (Life Technologies). FlpIn-TREx-HEK293-mGPRC6A and FlpIn-TREx-HEK293-hGPRC6A cells were then selected using 600 μg/ml hygromycin and 5 μg/ml blasticidin and grown in culture medium consisting of Dulbecco’s Modified Eagle Medium (DMEM), supplemented with 10% (v/v) foetal bovine serum (FBS) at 37°C in 5% CO2 and were sub-cultured in a 1:3 ratio every 3–4 days. Cells were cultured overnight in the presence of 1 μg/ml tetracycline to induce GPRC6A expression. […] 48 h after transfection, cells were selected using 3 μg/ml puromycin and grown as above.
HEK293-mGPRC6A cells were seeded at a density of 10^5 cells per well into PDL-coated 96-well plates and incubated overnight in DMEM, supplemented with 10% FBS (v/v) at 37°C in 5% CO2. Cells were then incubated in 90 μl of stimulation buffer (HBSS containing 5 mM HEPES, 0.1% BSA (w/v), 0.5 mM IBMX; pH 7.4) for 30 min at 37°C. Test compounds (10 μl at 10 x final) were added and cells were incubated for an additional 30 min at 37°C. The medium was removed and cells were incubated in 50 μl of ice-cold 100% ethanol. Once evaporated, 100 μl of lysis buffer (5 mM HEPES, 0.1% BSA (w/v), 0.3% Tween-20; pH 7.4) was added to the cells and samples were stored at -20°C until further analysis. Samples were analysed using the Alphascreen® cAMP assay kit (Perkin Elmer) following manufacturer instructions. Briefly, 10 μl of lysates were added to a 384-well Optiplate. After addition of 5 μl of acceptor bead mix, plate was incubated at RT for 30 min followed by addition of 15 μl of donor bead mix. After overnight (16 h) incubation at RT, plates were read using the Envision plate reader.

The target of experiment [2] is T1, mGPRC6A (mouse GPRC6A). Nature of the experiment: Label-free cell impedance (xCELLigence), tetracycline-induced FlpIn-TREx-HEK293-mGPRC6A cells. The format is cell-based. The protocol:
2.5 x 10^7 FlpIn-TREx-HEK293-mGPRC6A cells were seeded in a T175 flask and incubated overnight at 37°C in 5% CO2. Cells were then transfected with 35 μg of plasmid DNA (GαqG66D) with Lipofectamine LTX according to manufacturer's instructions, then incubated for 24h at 37°C in 5% CO2. Prior to the experiment, a background reading for each E-plate 96 (Bio-Rad, CA, USA) was measured after addition of 100 μl DMEM + 10% FBS per well. Cells were recovered using Versene and seeded at a 10^5 cells/well density in 200 μl DMEM + 10% FBS (containing 1 μg/ml tetracycline where indicated). Cells were washed 2 x 2 h in HBSS buffer (pH 7.2) containing 20 mM HEPES, 1 mM CaCl2 and 0.1% BSA (w/v) in a total volume of 180 μl. Test compounds (20 μl at 10x final concentration) were added to the plate and cell impedance was monitored for 3 h. Cell index was normalised to the buffer response (minus the baseline response at zero time point).
Concentration-response data were analysed using a three or four parameter logistic function (Motulsky & Christopoulos, 2004) to generate estimates of agonist potency (LogEC50). Data for all HEK293 assays represent the mean ± SEM of at least three independent experiments (except cell impedance, n = 2). For GLP-1 release, the data represent mean ± SEM of three to five independent experiments (except for OCN, wash; n = 2). For insulin release assays, data represent the mean ± SEM of three independent experiments (except for islet studies; n = 2). Insulin release data were normalised to the response to vehicle in either low or high [glucose]. Statistical analysis for GLP-1 release data were performed by one-way ANOVA, followed by Sidak’s multiple comparisons test (treating wash / no wash datasets separately). Statistical analyses for insulin release data were performed by two-way ANOVA (with [glucose] and drug treatment as group variables), followed by Sidak’s multiple comparisons test. Where only high [glucose] groups were evaluated, statistical analysis was by one-way ANOVA followed by Sidak’s multiple comparisons test.

“Also recorded” adds a separate entry of the source.

With “OCN: osteoblast-derived peptide, osteocalcin; variant not specified at the place (YLYQWLGAPVPYPDPLEPRREVCELNPDCDELADHIGFQEAYRRFYGPV; UniProt P02818 52-100, looked up)”, the “cAMP response (summary)” value with mGPRC6A (mouse GPRC6A) [1] (S1 Table) is recorded as “no response”. In addition, the “xCELLigence response (summary)” value with mGPRC6A (mouse GPRC6A) [2] (S1 Table) was “No response”.
`NCCC[C@H](N)C(=O)O` [L-ornithine]: the “stimulation of cAMP accumulation” value on mGPRC6A (mouse GPRC6A) [1] (30 min, 0.5 mM IBMX, Alphascreen, Fig 3A) is listed as “no detectable modulation of cAMP accumulation”. Also, on mGPRC6A (mouse GPRC6A) [1] (forskolin 3 μM, Fig 3A), the “inhibition of forskolin-stimulated cAMP” value is “neither L-ornithine nor OCN variants inhibited cAMP levels stimulated by forskolin; also recorded: Neither L-ornithine nor OCN variants inhibit”. Besides, the EC50 at mGPRC6A (mouse GPRC6A) [2] (tetracycline-induced, GαqG66D, xCELLigence, n = 2, read-out: pEC50, cell impedance (converted)) was 63.1 µM. Also, the “cell impedance (cell index) response” value on mGPRC6A (mouse GPRC6A) [2] (tetracycline-induced, xCELLigence, Fig 4) was “only mGPRC6A-expressing cells responded to L-ornithine; also recorded: increases cellular impedance only in tetracycline-induced cells”.

Values taken from publication PMC4718634, “Murine GPRC6A Mediates Cellular Responses to L-Amino Acids, but Not Osteocalcin Variants” (PLoS ONE, 2016).
